Assay: mn = molality of the nth substance listed, in mol/kg
Conditions: for surface tension liquid-gas: Ring tensiometer; for viscosity / speed of sound: 101.3 kPa, Liquid; for viscosity: Capillary tube (Ostwald / Ubbelohde) method

O=[N+]([O-])[O-].O=[N+]([O-])[O-].[Zn+2] [nitric acid, zinc salt] + O
Conditions | speed of sound [m/s] | surface tension liquid-gas [mN/m] | viscosity [mPa·s]
273.15 K, m1 = 0.0875 | 1413 | – | –
273.15 K, m1 = 0.1329 | 1413.5 | – | 1.863
273.15 K, m1 = 0.2263 | – | 75.65 | –
273.15 K, m1 = 0.2466 | 1422.7 | – | 1.905
273.15 K, m1 = 0.334 | – | 75.79 | –
273.15 K, m1 = 0.3388 | 1429.7 | – | 1.95
273.15 K, m1 = 0.6111 | 1454.8 | – | 2.081
273.15 K, m1 = 0.6198 | – | 76.35 | –
273.15 K, m1 = 0.6405 | 1457 | – | 2.103
273.15 K, m1 = 0.8228 | – | 77.03 | –
273.15 K, m1 = 1.113 | 1500.1 | – | 2.431
273.15 K, m1 = 1.258 | 1516.9 | – | 2.573
273.15 K, m1 = 1.259 | – | 78.02 | –
273.15 K, m1 = 1.549 | – | 78.63 | –
273.15 K, m1 = 1.551 | 1544.4 | – | 2.833
273.15 K, m1 = 1.818 | – | 78.99 | –
273.15 K, m1 = 1.906 | 1578.6 | – | 3.306
273.15 K, m1 = 2.145 | 1600.1 | – | 3.662
273.15 K, m1 = 2.222 | – | 80.42 | –
273.15 K, m1 = 2.29 | 1612.6 | – | 3.902
273.15 K, m1 = 2.292 | 1612.3 | – | –
273.15 K, m1 = 2.344 | 1617.4 | – | 3.935
273.15 K, m1 = 2.526 | – | 81.29 | –
273.15 K, m1 = 2.721 | – | 81.96 | –
273.15 K, m1 = 2.91 | 1663.1 | – | 5.033
273.15 K, m1 = 3.426 | – | 83.68 | –
273.15 K, m1 = 3.472 | 1707.7 | – | 6.559
273.15 K, m1 = 4.011 | – | 85.35 | –
273.15 K, m1 = 4.075 | 1740.8 | – | 8.684
273.15 K, m1 = 4.231 | – | 85.77 | –
273.15 K, m1 = 4.817 | 1780.2 | – | 12.49
273.15 K, m1 = 5.133 | – | 87.84 | –
273.15 K, m1 = 5.224 | 1794 | – | 15.05
278.15 K, m1 = 0.0875 | 1435.8 | – | –
278.15 K, m1 = 0.1329 | 1436.3 | – | 1.585
278.15 K, m1 = 0.2466 | 1444.2 | – | 1.626
278.15 K, m1 = 0.3388 | 1450.4 | – | 1.667
278.15 K, m1 = 0.6111 | 1472.6 | – | 1.788
278.15 K, m1 = 0.6405 | 1474.8 | – | 1.807
278.15 K, m1 = 1.113 | 1514.5 | – | 2.096
278.15 K, m1 = 1.258 | 1530.4 | – | 2.221
278.15 K, m1 = 1.551 | 1555 | – | 2.436
278.15 K, m1 = 1.906 | 1586.2 | – | 2.838
278.15 K, m1 = 2.145 | 1606.1 | – | 3.15
278.15 K, m1 = 2.29 | 1618.1 | – | 3.351
278.15 K, m1 = 2.292 | 1617.3 | – | –
278.15 K, m1 = 2.344 | 1622.2 | – | 3.38
278.15 K, m1 = 2.91 | 1664.7 | – | 4.293
278.15 K, m1 = 3.472 | 1703.6 | – | 5.554
278.15 K, m1 = 4.075 | 1737.6 | – | 7.273
278.15 K, m1 = 4.817 | 1772.3 | – | 10.32
278.15 K, m1 = 5.224 | 1786.4 | – | 12.33
283.15 K, m1 = 0.0875 | 1456.4 | – | –
283.15 K, m1 = 0.1329 | 1455.8 | – | 1.368
283.15 K, m1 = 0.2263 | – | 74.42 | –
283.15 K, m1 = 0.2466 | 1463.2 | – | 1.406
283.15 K, m1 = 0.334 | – | 74.63 | –
283.15 K, m1 = 0.3388 | 1468.8 | – | 1.444
283.15 K, m1 = 0.6111 | 1487.8 | – | 1.559
283.15 K, m1 = 0.6198 | – | 75.26 | –
283.15 K, m1 = 0.6405 | 1491.2 | – | 1.571
283.15 K, m1 = 0.8228 | – | 75.94 | –
283.15 K, m1 = 1.113 | 1526.3 | – | 1.827
283.15 K, m1 = 1.258 | 1540.8 | – | 1.936
283.15 K, m1 = 1.259 | – | 77.01 | –
283.15 K, m1 = 1.549 | – | 77.42 | –
283.15 K, m1 = 1.551 | 1564 | – | 2.13
283.15 K, m1 = 1.818 | – | 78.05 | –
283.15 K, m1 = 1.906 | 1592.7 | – | 2.478
283.15 K, m1 = 2.145 | 1611.1 | – | 2.737
283.15 K, m1 = 2.222 | – | 79.29 | –
283.15 K, m1 = 2.29 | 1618.7 | – | 2.901
283.15 K, m1 = 2.292 | 1619.7 | – | –
283.15 K, m1 = 2.344 | 1626.1 | – | 2.932
283.15 K, m1 = 2.526 | – | 80.48 | –
283.15 K, m1 = 2.721 | – | 80.75 | –
283.15 K, m1 = 2.91 | 1665.6 | – | 3.705
283.15 K, m1 = 3.426 | – | 82.59 | –
283.15 K, m1 = 3.472 | 1701.3 | – | 4.774
283.15 K, m1 = 4.011 | – | 84.21 | –
283.15 K, m1 = 4.075 | 1733.5 | – | 6.175
283.15 K, m1 = 4.231 | – | 84.55 | –
283.15 K, m1 = 4.817 | 1765.9 | – | 8.641
283.15 K, m1 = 5.133 | – | 86.75 | –
283.15 K, m1 = 5.224 | 1779.8 | – | 10.24
283.15 K, m1 = 5.797 | 1795 | – | –
283.15 K, m1 = 6.245 | – | 88.17 | –
288.15 K, m1 = 0.0875 | 1473.6 | – | –
288.15 K, m1 = 0.1329 | 1473.1 | – | 1.195
288.15 K, m1 = 0.2466 | 1479.5 | – | 1.229
288.15 K, m1 = 0.3388 | 1484.8 | – | 1.265
288.15 K, m1 = 0.6111 | 1503 | – | 1.368
288.15 K, m1 = 0.6405 | 1505.2 | – | 1.38
288.15 K, m1 = 1.113 | 1537.3 | – | 1.609
288.15 K, m1 = 1.258 | 1550.2 | – | 1.705
288.15 K, m1 = 1.551 | 1571.7 | – | 1.875
288.15 K, m1 = 1.906 | 1598.9 | – | 2.178
288.15 K, m1 = 2.145 | 1615 | – | 2.403
288.15 K, m1 = 2.29 | 1625 | – | 2.545
288.15 K, m1 = 2.292 | 1623.1 | – | –
288.15 K, m1 = 2.344 | 1629.2 | – | 2.57
288.15 K, m1 = 2.91 | 1666 | – | 3.231
288.15 K, m1 = 3.472 | 1699.5 | – | 4.124
288.15 K, m1 = 4.075 | 1729.1 | – | 5.31
288.15 K, m1 = 4.817 | 1761.2 | – | 7.338
288.15 K, m1 = 5.224 | 1769.8 | – | 8.634
288.15 K, m1 = 5.797 | 1786.4 | – | –
288.15 K, m1 = 6.34 | 1797.7 | – | –
293.15 K, m1 = 0.2263 | – | 73.17 | –
293.15 K, m1 = 0.334 | – | 73.3 | –
293.15 K, m1 = 0.6198 | – | 74.02 | –
293.15 K, m1 = 0.8228 | – | 74.83 | –
293.15 K, m1 = 1.259 | – | 75.92 | –
293.15 K, m1 = 1.549 | – | 76.32 | –
293.15 K, m1 = 1.818 | – | 76.87 | –
293.15 K, m1 = 2.222 | – | 78.11 | –
293.15 K, m1 = 2.526 | – | 79 | –
293.15 K, m1 = 2.721 | – | 79.59 | –
293.15 K, m1 = 3.426 | – | 81.48 | –
293.15 K, m1 = 4.011 | – | 83.01 | –
293.15 K, m1 = 4.231 | – | 83.39 | –
